The target of the experiment is T1, human HSL (Homo sapiens, UniProt Q05469).
T1 construct: overlapping PCR to generate a full length human HSL ORF with a 3′-His6 tag; His6 (C); made in house; host or cells: High 5 insect cells (baculovirus, pFast-BAC)
T1 sequence (Q05469 1-1076): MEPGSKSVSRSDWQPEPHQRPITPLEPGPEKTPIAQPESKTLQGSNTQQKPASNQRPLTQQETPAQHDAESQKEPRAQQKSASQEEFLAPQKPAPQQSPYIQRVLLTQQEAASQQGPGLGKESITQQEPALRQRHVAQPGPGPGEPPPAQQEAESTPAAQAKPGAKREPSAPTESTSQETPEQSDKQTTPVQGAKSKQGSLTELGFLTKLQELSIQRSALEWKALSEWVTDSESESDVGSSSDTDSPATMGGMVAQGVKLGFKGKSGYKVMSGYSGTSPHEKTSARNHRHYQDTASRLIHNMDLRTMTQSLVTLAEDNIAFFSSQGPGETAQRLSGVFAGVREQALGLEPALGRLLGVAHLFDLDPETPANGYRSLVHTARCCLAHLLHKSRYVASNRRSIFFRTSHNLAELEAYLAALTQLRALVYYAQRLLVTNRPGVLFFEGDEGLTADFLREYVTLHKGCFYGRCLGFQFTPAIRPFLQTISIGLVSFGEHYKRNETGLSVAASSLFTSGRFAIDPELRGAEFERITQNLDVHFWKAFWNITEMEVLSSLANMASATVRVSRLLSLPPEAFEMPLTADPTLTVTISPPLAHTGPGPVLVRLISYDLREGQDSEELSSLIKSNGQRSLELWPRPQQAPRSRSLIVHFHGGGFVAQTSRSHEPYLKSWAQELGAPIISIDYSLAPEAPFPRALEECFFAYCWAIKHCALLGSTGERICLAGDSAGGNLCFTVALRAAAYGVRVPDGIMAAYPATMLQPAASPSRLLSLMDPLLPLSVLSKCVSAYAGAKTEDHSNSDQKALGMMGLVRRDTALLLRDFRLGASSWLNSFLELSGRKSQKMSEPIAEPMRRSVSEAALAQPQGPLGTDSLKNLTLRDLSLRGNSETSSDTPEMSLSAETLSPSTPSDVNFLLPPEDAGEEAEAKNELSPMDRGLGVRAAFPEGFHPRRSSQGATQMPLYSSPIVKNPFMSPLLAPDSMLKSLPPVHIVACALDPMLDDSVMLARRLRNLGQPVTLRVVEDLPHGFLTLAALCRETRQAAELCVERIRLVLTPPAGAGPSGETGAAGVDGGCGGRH
Briefly: Human Hormone-Sensitive Lipase (HSL) Enzyme Inhibition Assay. The format is biochemical. Particulars: colorimetric assay, 2,3-dimercapto-1-propanol tributyrate (DMPT) substrate, 37° C. for 20 minutes, absorbance at 405 nm; read-out: HSL hum IC50. Summed up: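 Colorimetric thioester hydrolysis: compounds in DMSO series mixed with DMPT (1.5 mM) in MOPS pH 7.2 with BSA, then baculovirus-expressed His6-tagged full-length human HSL added, 37° C, 20 min. DTNB plus detergents added, 15 min room temperature, absorbance at 405 nm.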
As for `O=C1N(c2ccc(OCC(F)(F)F)nc2)CCC12CCN(S(=O)(=O)c1ccccc1Cl)CC2` [Example 119, 8-(2-Chloro-benzenesulfonyl)-2-[6-(2,2,2-trifluoro-ethoxy)-pyridin-3-yl]-2,8-diaza-spiro[4.5]decan-1-one], the IC50 turned out to be 50 nM.

As to `CCc1ccc(N2CCC3(CCN(S(=O)(=O)c4ccccc4Cl)CC3)C2=O)cn1` [Example 250, 8-(2-Chloro-benzenesulfonyl)-2-(6-ethyl-pyridin-3-yl)-2,8-diaza-spiro[4.5]decan-1-one], the IC50 turned out to be 110 nM.

With `COCCCOc1ccc(N2CCC3(CCN(S(=O)(=O)CC(C)C)CC3)C2=O)cc1` [Example 107, 2-[4-(3-Methoxy-propoxy)-phenyl]-8-(2-methyl-propane-1-sulfonyl)-2,8-diaza-spiro[4.5]decan-1-one], the IC50 was 740 nM.

Take `CC(C)CS(=O)(=O)N1CCC2(CCN(c3ccc(C(O)C(F)(F)F)cc3)C2=O)CC1` (stereo not drawn) [Example 167, 8-(isobutylsulfonyl)-2-(4-(2,2,2-trifluoro-1-hydroxyethyl)phenyl)-2,8-diazaspiro[4.5]decan-1-one]: the IC50 was 70 nM.

As to `CC(Oc1ccc(N2CCC3(CCN(S(=O)(=O)c4ccccc4)CC3)C2=O)cc1)C(F)(F)F` (racemic) [Example 4, (rac)-8-Benzenesulfonyl-2-[4-(2,2,2-trifluoro-1-methyl-ethoxy)-phenyl]-2,8-diaza-piro[4.5]decan-1-one], the IC50 was 20 nM.

On to `O=C1N(c2ccc(CC(F)(F)F)cc2)CCC12CCN(S(=O)(=O)c1ccccc1OC(F)(F)F)CC2` [Example 78, 2-[4-(2,2,2-Trifluoro-ethyl)-phenyl]-8-(2-trifluoromethoxy-benzenesulfonyl)-2,8-diaza-spiro[4.5]decan-1-one], for which the half-maximal inhibitory concentration (IC50) was 30 nM.

For the molecule `O=C1N(c2ccc(OC(F)(F)F)cc2)CCC12CCN(S(=O)(=O)c1cccnc1Cl)CC2` [Example 188, 8-(2-Chloro-pyridine-3-sulfonyl)-2-(4-trifluoromethoxy-phenyl)-2,8-diaza-spiro[4.5]decan-1-one], the IC50 came out at 20 nM.

As for `Cc1nc2ccc(N3CCC4(CCN(S(=O)(=O)c5ccccc5Cl)CC4)C3=O)cc2s1` [Example 127, 8-(2-Chloro-benzenesulfonyl)-2-(2-methyl-benzothiazol-6-yl)-2,8-diaza-spiro[4.5]decan-1-one], the IC50 came out at 60 nM.

For the molecule `CC(C)NS(=O)(=O)N1CCC2(CCN(c3ccc(OC(F)(F)F)cc3)C2=O)CC1` [Example 285, 1-Oxo-2-(4-trifluoromethoxy-phenyl)-2,8-diaza-spiro[4.5]decane-8-sulfonic acid isopropylamide], the IC50 was found to be 70 nM.

`O=C1N(c2ccc(OC(F)(F)F)cc2)CCC12CCN(S(=O)(=O)c1ccc(C(F)(F)F)cc1Cl)CC2` [Example 70, 8-(2-Chloro-4-trifluoromethyl-benzenesulfonyl)-2-(4-trifluoromethoxy-phenyl)-2,8-diaza-spiro[4.5]decan-1-one]: the IC50 is 140 nM.

With `COCCc1ccc(N2CCC3(CCN(S(=O)(=O)c4ccccc4OC(F)(F)F)CC3)C2=O)cc1` [Example 105, 2-[4-(2-Methoxy-ethyl)-phenyl]-8-(2-trifluoromethoxy-benzenesulfonyl)-2,8-diaza-spiro[4.5]decan-1-one], the IC50 worked out at 20 nM.

As to `O=C(N1CCC2(CC1)CCN(c1ccc(OC(F)(F)F)cc1)C2=O)N1CCCc2ccccc21` [Example 281, 8-(3,4-Dihydro-2H-quinoline-1-carbonyl)-2-(4-trifluoromethoxy-phenyl)-2,8-diaza-spiro[4.5]decan-1-one], the IC50 is 110 nM.

As to `O=C1N(c2ccc(C3CC3)cc2)CCC12CCN(S(=O)(=O)c1ccc(C(F)(F)F)cc1Cl)CC2` [Example 77, 8-(2-Chloro-4-trifluoromethyl-benzenesulfonyl)-2-(4-cyclopropyl-phenyl)-2,8-diaza-spiro[4.5]decan-1-one], the IC50 was 180 nM.

`CCc1ccc(N2CCC3(CCN(S(=O)(=O)CC(C)C)CC3)C2=O)cc1` [Example 24, 2-(4-Ethyl-phenyl)-8-(2-methyl-propane-1-sulfonyl)-2,8-diaza-spiro[4.5]decan-1-one]: the IC50 worked out at 100 nM.

As to `CCn1ncc2cc(N3CCC4(CCN(S(=O)(=O)c5ccccc5Cl)CC4)C3=O)ccc21` [Example 126, 8-(2-Chloro-benzenesulfonyl)-2-(1-ethyl-1H-indazol-5-yl)-2,8-diaza-spiro[4.5]decan-1-one], the IC50 amounted to 30 nM.

For `O=C(NCc1ccccc1Cl)N1CCC2(CC1)CCN(c1ccc(OC(F)(F)F)cc1)C2=O` [Example 262, 1-Oxo-2-(4-trifluoromethoxy-phenyl)-2,8-diaza-spiro[4.5]decane-8-carboxylic acid 2-chloro-benzylamide], the IC50 worked out at 340 nM.

For the molecule `O=C(CC1CCC1)N1CCC2(CC1)CCN(c1ccc(OC(F)(F)F)cc1)C2=O` [Example 216, 8-(2-Cyclobutyl-acetyl)-2-(4-trifluoromethoxy-phenyl)-2,8-diaza-spiro[4.5]decan-1-one], the 50% inhibitory concentration (IC50) was determined as 250 nM.

As for `O=C1N(c2ccc(C(O)C(F)(F)F)cc2)CCC12CCN(S(=O)(=O)C1CC1)CC2` (stereo not drawn) [Example 170, 8-(Cyclopropylsulfonyl)-2-(4-(2,2,2-trifluoro-1-hydroxyethyl)phenyl)-2,8-diazaspiro[4.5]decan-1-one], the IC50 stood at 320 nM.

As to `CN(C(=O)N1CCC2(CC1)CCN(c1ccc(OC(F)(F)F)cc1)C2=O)c1cccc(F)c1` [Example 280, 1-Oxo-2-(4-trifluoromethoxy-phenyl)-2,8-diaza-spiro[4.5]decane-8-carboxylic acid (3-fluoro-phenyl)-methyl-amide], the IC50 is 90 nM.

With `CC(Oc1ccc(N2CCC3(CCN(C(=O)CC(C)(C)C)CC3)C2=O)cc1)C(F)(F)F` (stereo not drawn) [Example 123, 8-(3,3-Dimethyl-butyryl)-2-[4-(2,2,2-trifluoro-1-methyl-ethoxy)-phenyl]-2,8-diaza-spiro[4.5]decan-1-one], the IC50 stood at 250 nM.

Consider `Cc1nnc(Cc2ccc(N3CCC4(CCN(S(=O)(=O)c5ccccc5Cl)CC4)C3=O)cc2)o1` [Example 137, 8-(2-Chloro-benzenesulfonyl)-2-[4-(5-methyl-[1,3,4]oxadiazol-2-ylmethyl)-phenyl]-2,8-diaza-spiro[4.5]decan-1-one], for which the IC50 came out at 220 nM.

Turning to `CN(CCO)S(=O)(=O)N1CCC2(CCN(c3ccc(OC(F)(F)F)cc3)C2=O)CC1` [Example 292, 1-Oxo-2-(4-trifluoromethoxy-phenyl)-2,8-diaza-spiro[4.5]decane-8-sulfonic acid (2-hydroxy-ethyl)-methyl-amide], the IC50 is 200 nM.

As to `COc1ccncc1S(=O)(=O)N1CCC2(CCN(c3ccc(OC(F)(F)F)cc3)C2=O)CC1` [Example 200, 8-(4-M ethoxy-pyridine-3-sulfonyl)-2-(4-trifluoromethoxy-phenyl)-2,8-diaza-spiro[4.5]decan-1-one], the IC50 worked out at 170 nM.

Take `CCc1ccc(N2CCC3(CCN(S(=O)(=O)c4ccccc4I)CC3)C2=O)cc1` [Example 74, 2-(4-Ethyl-phenyl)-8-(2-iodo-benzenesulfonyl)-2,8-diaza-spiro[4.5]decan-1-one]: the IC50 was found to be 200 nM.

`O=C1N(c2ccc(OCCC(F)(F)F)cc2)CCC12CCN(S(=O)(=O)c1ccccc1OC(F)(F)F)CC2` [Example 103, 8-(2-Trifluoromethoxy-benzenesulfonyl)-2-[4-(3,3,3-trifluoro-propoxy)-phenyl]-2,8-diaza-spiro[4.5]decan-1-one]: the IC50 amounted to 50 nM.

Take `CC(C)(C)c1ccc(N2CCC3(CCN(S(=O)(=O)c4ccccc4)CC3)C2=O)cc1` [Example 3, 8-Benzenesulfonyl-2-(4-tert-butyl-phenyl)-2,8-diaza-spiro[4.5]decan-1-one]: the IC50 is 30 nM.

For the molecule `CC(C)(C)CS(=O)(=O)N1CCC2(CCN(c3ccc(OS(C)(=O)=O)cc3)C2=O)CC1` [Example 53, Methanesulfonic acid 4-[8-(2,2-dimethyl-propane-1-sulfonyl)-1-oxo-2,8-diaza-spiro[4.5]dec-2-yl]-phenyl ester], the IC50 worked out at 110 nM.

As usually defined, the IC50 is the concentration needed to halve the response being measured.
